# Measured values published in PubChem BioAssay (NCI).
#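 Values below derive from 48-hour exposures of cells grown in 96-well plates, with endpoints linearly interpolated between the two concentrations bracketing the appropriate inhibition level. The concentration for full growth arrest is given as TGI.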
# Assays:
# Experiment in all cases: DTP human tumour cell line panel, 48 h
# 786-0 renal = test system: 786-0 renal
# A498 renal = test system: A498 renal
# A549 NSCLC = test system: A549 NSCLC
# ACHN renal = test system: ACHN renal
# BT-549 breast = test system: BT-549 breast
# CAKI-1 renal = test system: CAKI-1 renal
# CCRF-CEM leukemia = test system: CCRF-CEM leukemia
# COLO 205 colon = test system: COLO 205 colon
# DU-145 prostate = test system: DU-145 prostate
# EKVX NSCLC = test system: EKVX NSCLC
# HCC-2998 colon = test system: HCC-2998 colon
# HCT-116 colon = test system: HCT-116 colon
# HCT-15 colon = test system: HCT-15 colon
# HL-60(TB) leukemia = test system: HL-60(TB) leukemia
# HOP-62 NSCLC = test system: HOP-62 NSCLC
# HOP-92 NSCLC = test system: HOP-92 NSCLC
# HS 578T breast = test system: HS 578T breast
# HT29 colon = test system: HT29 colon
# IGROV1 ovarian = test system: IGROV1 ovarian
# K-562 leukemia = test system: K-562 leukemia
# KM12 colon = test system: KM12 colon
# LOX IMVI melanoma = test system: LOX IMVI melanoma
# M14 melanoma = test system: M14 melanoma
# MALME-3M melanoma = test system: MALME-3M melanoma
# MCF7 breast = test system: MCF7 breast
# MDA-MB-231 breast = test system: MDA-MB-231 breast
# MDA-MB-435 = test system: MDA-MB-435
# MDA-N = test system: MDA-N
# MOLT-4 leukemia = test system: MOLT-4 leukemia
# NCI-H226 lung = test system: NCI-H226 lung
# NCI-H23 lung = test system: NCI-H23 lung
# NCI-H460 lung = test system: NCI-H460 lung
# NCI-H522 lung = test system: NCI-H522 lung
# NCI/ADR-RES ovarian = test system: NCI/ADR-RES ovarian
# OVCAR-3 ovarian = test system: OVCAR-3 ovarian
# OVCAR-4 ovarian = test system: OVCAR-4 ovarian
# OVCAR-5 ovarian = test system: OVCAR-5 ovarian
# OVCAR-8 ovarian = test system: OVCAR-8 ovarian
# PC-3 prostate = test system: PC-3 prostate
# RPMI-8226 leukemia = test system: RPMI-8226 leukemia
# RXF 393 renal = test system: RXF 393 renal
# SF-268 CNS = test system: SF-268 CNS
# SF-295 CNS = test system: SF-295 CNS
# SF-539 CNS = test system: SF-539 CNS
# SK-MEL-2 melanoma = test system: SK-MEL-2 melanoma
# SK-MEL-28 melanoma = test system: SK-MEL-28 melanoma
# SK-MEL-5 melanoma = test system: SK-MEL-5 melanoma
# SK-OV-3 ovarian = test system: SK-OV-3 ovarian
# SN12C renal = test system: SN12C renal
# SNB-19 CNS = test system: SNB-19 CNS
# SNB-75 CNS = test system: SNB-75 CNS
# SR leukemia = test system: SR leukemia
# SW-620 colon = test system: SW-620 colon
# T-47D breast = test system: T-47D breast
# TK-10 renal = test system: TK-10 renal
# U251 CNS = test system: U251 CNS
# UACC-257 melanoma = test system: UACC-257 melanoma
# UACC-62 melanoma = test system: UACC-62 melanoma
# UO-31 renal = test system: UO-31 renal
structure (smiles),measurement,setting,value
O=C1NC2(CCN(CCc3ccccc3)CC2)Oc2ccccc21,TGI,786-0 renal,> 100 µM
same,TGI,A498 renal,> 100 µM
same,TGI,A549 NSCLC,> 100 µM
same,TGI,ACHN renal,> 100 µM
same,TGI,BT-549 breast,> 100 µM
same,TGI,CAKI-1 renal,> 100 µM
same,TGI,CCRF-CEM leukemia,> 100 µM
same,TGI,COLO 205 colon,> 100 µM
same,TGI,DU-145 prostate,> 100 µM
same,TGI,EKVX NSCLC,> 100 µM
same,TGI,HCC-2998 colon,> 100 µM
same,TGI,HCT-116 colon,> 100 µM
same,TGI,HCT-15 colon,> 100 µM
same,TGI,HL-60(TB) leukemia,> 100 µM
same,TGI,HOP-62 NSCLC,> 100 µM
same,TGI,HOP-92 NSCLC,69.4 µM
same,TGI,HS 578T breast,50.7 µM
same,TGI,HT29 colon,> 100 µM
same,TGI,IGROV1 ovarian,> 100 µM
same,TGI,K-562 leukemia,> 100 µM
same,TGI,KM12 colon,> 100 µM
same,TGI,LOX IMVI melanoma,> 100 µM
same,TGI,M14 melanoma,49.9 µM
same,TGI,MALME-3M melanoma,> 100 µM
same,TGI,MCF7 breast,> 100 µM
same,TGI,MDA-MB-231 breast,> 100 µM
same,TGI,MDA-MB-435,> 100 µM
same,TGI,MDA-N,> 100 µM
same,TGI,MOLT-4 leukemia,> 100 µM
same,TGI,NCI-H226 lung,> 100 µM
same,TGI,NCI-H23 lung,> 100 µM
same,TGI,NCI-H460 lung,> 100 µM
same,TGI,NCI-H522 lung,> 100 µM
same,TGI,NCI/ADR-RES ovarian,> 100 µM
same,TGI,OVCAR-3 ovarian,> 100 µM
same,TGI,OVCAR-4 ovarian,> 100 µM
same,TGI,OVCAR-5 ovarian,> 100 µM
same,TGI,OVCAR-8 ovarian,> 100 µM
same,TGI,PC-3 prostate,> 100 µM
same,TGI,RPMI-8226 leukemia,> 100 µM
same,TGI,RXF 393 renal,> 100 µM
same,TGI,SF-268 CNS,> 100 µM
same,TGI,SF-295 CNS,> 100 µM
same,TGI,SF-539 CNS,> 100 µM
same,TGI,SK-MEL-2 melanoma,> 100 µM
same,TGI,SK-MEL-28 melanoma,> 100 µM
same,TGI,SK-MEL-5 melanoma,27.8 µM
same,TGI,SK-OV-3 ovarian,> 100 µM
same,TGI,SN12C renal,> 100 µM
same,TGI,SNB-19 CNS,> 100 µM
same,TGI,SNB-75 CNS,> 100 µM
same,TGI,SR leukemia,> 100 µM
same,TGI,SW-620 colon,> 100 µM
same,TGI,T-47D breast,> 100 µM
same,TGI,TK-10 renal,> 100 µM
same,TGI,U251 CNS,> 100 µM
same,TGI,UACC-257 melanoma,> 100 µM
same,TGI,UACC-62 melanoma,> 100 µM
same,TGI,UO-31 renal,> 100 µM
